Where a name gives a salt, the structure may show the parent alone. Bounds are passed on as bounds.

T1 sequence (P26663 2420-2963): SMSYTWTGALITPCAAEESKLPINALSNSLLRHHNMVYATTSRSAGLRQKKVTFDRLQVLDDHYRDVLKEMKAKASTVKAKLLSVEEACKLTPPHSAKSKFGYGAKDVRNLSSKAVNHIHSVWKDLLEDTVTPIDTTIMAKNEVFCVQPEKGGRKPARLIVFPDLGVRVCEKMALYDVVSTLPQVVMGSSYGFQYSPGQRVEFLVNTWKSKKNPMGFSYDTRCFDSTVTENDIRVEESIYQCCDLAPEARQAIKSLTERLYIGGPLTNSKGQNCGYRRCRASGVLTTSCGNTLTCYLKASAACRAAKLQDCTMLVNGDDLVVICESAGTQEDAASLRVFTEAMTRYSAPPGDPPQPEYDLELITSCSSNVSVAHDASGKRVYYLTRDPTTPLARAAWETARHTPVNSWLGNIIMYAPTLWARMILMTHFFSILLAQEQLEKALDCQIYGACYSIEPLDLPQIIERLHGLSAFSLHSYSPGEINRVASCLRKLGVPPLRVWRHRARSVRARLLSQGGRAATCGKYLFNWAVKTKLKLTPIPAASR

This test concerns the target T1, HCV polymerase (Hepatitis C virus genotype 1b, UniProt P26663).
T1 construct: a region encoding NS5B (J Virol 1991 March, 65(3), 1105-13, 544 amino acids after deletion of 47 amino acids on the C-terminal); 6xHis (C); made in house; host or cells: Escherichia coli
Briefly: biochemical. Also on record: species or system HCV BK strain. In outline: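 His-tagged NS5B (BK strain, 47-aa C-terminal deletion, E. coli-expressed) at 0.5 μg/ml copied 5 μg/ml run-off RNA bearing the HCV 3′ UTR with 2 μM UTP plus [3H]UTP, 50 μM ATP/GTP, in pH 7.5 Tris with 5 mM MgCl2, 25 °C, 90 min. TCA-precipitated RNA was counted and IC50 calculated.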
Broadly, the IC50 is the concentration needed to halve the response being measured. A higher IC50 goes with weaker potency in that assay. With `COCCCC1CCCN(CCN2CCn3c(c(C4CCCCC4)c4ccc(C(=O)O)cc43)-c3ccc(C)cc32)C1` [Example 1-540, 13-cyclohexyl-5-{2-[(S)-3-(3-methoxypropyl)piperidin-1-yl]ethyl}-3-methyl-6,7-dihydro-5H-benzo[5,6][1,4]diazepino[7,1-a]indole-10-carboxylic acid dihydrochloride], the IC50 is below 0.1 µM.

With `COC(C)(C)[C@@H]1CCCN(CCN2CCn3c(c(C4CCCCC4)c4ccc(C(=O)O)cc43)-c3ccc(C)cc32)C1` [Example 1-541, 13-cyclohexyl-5-{2-[(R)-3-(1-methoxy-1-methylethyl)piperidin-1-yl]ethyl}-3-methyl-6,7-dihydro-5H-benzo[5,6][1,4]diazepino[7,1-a]indole-10-carboxylic acid dihydrochloride], the IC50 is below 0.1 µM.

As to `COCCC1CCCCN1CCN1CCn2c(c(C3CCCCC3)c3ccc(C(=O)O)cc32)-c2ccc(C)cc21` (stereo not drawn) [Example 1-542, 13-cyclohexyl-5-{2-[2-(2-methoxyethyl)piperidin-1-yl]ethyl}-3-methyl-6,7-dihydro-5H-benzo[5,6][1,4]diazepino[7,1-a]indole-10-carboxylic acid dihydrochloride], the IC50 was below 0.1 µM.

In turn, `CN(C)CCN1CCn2c(c(C3CCCCC3)c3ccc(C(=O)O)cc32)-c2ccc(OCc3ccccn3)cc21` [Example 1-543, 13-cyclohexyl-5-(2-dimethylaminoethyl)-3-(pyridin-2-ylmethoxy)-6,7-dihydro-5H-benzo[5,6][1,4]diazepino[7,1-a]indole-10-carboxylic acid trihydrochloride] came in with an IC50 below 0.1 µM.

The molecule `COCC[C@@H]1CCCN(CCN2CCn3c(c(C4CCCCC4)c4ccc(C(=O)O)cc43)-c3cc(F)c(F)cc32)C1` [Example 1-544, 13-cyclohexyl-2,3-difluoro-5-{2-[(S)-3-(2-methoxyethyl)piperidin-1-yl]ethyl}-6,7-dihydro-5H-benzo[5,6][1,4]diazepino[7,1-a]indole-10-carboxylic acid dihydrochloride] displayed an IC50 below 0.1 µM.

On to `Cc1ccc2c(c1)N(CCN1CCCC(C(=O)N(C)C)C1)CCn1c-2c(C2CCCCC2)c2ccc(C(=O)O)cc21` (stereo not drawn) [Example 1-545, 13-cyclohexyl-5-[2-(3-dimethylcarbamoylpiperidin-1-yl)ethyl]-3-methyl-6,7-dihydro-5H-benzo[5,6][1,4]diazepino[7,1-a]indole-10-carboxylic acid dihydrochloride], for which the IC50 was below 0.1 µM.

With `COCCOc1ccc2c(c1)N(CCN1CCCCC1)CCn1c-2c(C2CCCCC2)c2ccc(C(=O)O)cc21` [Example 1-546, 13-cyclohexyl-3-(2-methoxyethoxy)-5-[2-(piperidin-1-yl)ethyl]-6,7-dihydro-5H-benzo[5,6][1,4]diazepino[7,1-a]indole-10-carboxylic acid dihydrochloride], the IC50 was below 0.1 µM.

The molecule `COCCO[C@@H]1CCCN(CCN2CCn3c(c(C4CCCCC4)c4ccc(C(=O)O)cc43)-c3ccc(C)cc32)C1` [Example 1-547, 13-cyclohexyl-5-{2-[(R)-3-(2-methoxyethoxy)piperidin-1-yl]ethyl}-3-methyl-6,7-dihydro-5H-benzo[5,6][1,4]diazepino[7,1-a]indole-10-carboxylic acid dihydrochloride] yielded an IC50 below 0.1 µM.

For the molecule `CN(C)CCN1CCn2c(c(C3CCCCC3)c3ccc(C(=O)O)cc32)-c2ccc(OCCOc3ccccc3)cc21` [Example 1-548, 13-cyclohexyl-5-(2-dimethylaminoethyl)-3-(2-phenoxyethoxy)-6,7-dihydro-5H-benzo[5,6][1,4]diazepino[7,1-a]indole-10-carboxylic acid dihydrochloride], the 50% inhibitory concentration (IC50) is below 0.1 µM.

The molecule `O=C(O)c1ccc2c(C3CCCCC3)c3n(c2c1)CCN(CCN1CCCCC1)c1ncccc1-3` [Example 1-549, 12-cyclohexyl-5-[2-(piperidin-1-yl)ethyl]-6,7-dihydro-5H-4,5,7a-triazadibenzo[a,e]azulene-9-carboxylic acid dihydrochloride] returned an IC50 below 0.1 µM.

Consider `O=C(O)c1ccc2c(C3CCCCC3)c3n(c2c1)CCN(CCN1CCCOCC1)c1cc(F)c(F)cc1-3` [Example 1-550, 13-cyclohexyl-2,3-difluoro-5-[2-(1,4-oxazepan-4-yl)ethyl]-6,7-dihydro-5H-benzo[5,6][1,4]diazepino[7,1-a]indole-10-carboxylic acid dihydrochloride], for which the IC50 is below 0.1 µM.

With `COCC1CCCCN(CCN2CCn3c(c(C4CCCCC4)c4ccc(C(=O)O)cc43)-c3ccc(C)cc32)C1` (stereo not drawn) [Example 1-551, 13-cyclohexyl-5-[2-(3-methoxymethylazepan-1-yl)ethyl]-3-methyl-6,7-dihydro-5H-benzo[5,6][1,4]diazepino[7,1-a]indole-10-carboxylic acid dihydrochloride], the IC50 was below 0.1 µM.

Turning to `CN1CCn2c(c(C3CCCCC3)c3ccc(C(=O)O)cc32)-c2cccc(OCCN3CCCCC3)c21` [Example 1-552, 13-cyclohexyl-5-methyl-4-[2-(piperidin-1-yl)ethoxy]-6,7-dihydro-5H-benzo[5,6][1,4]diazepino[7,1-a]indole-10-carboxylic acid dihydrochloride], the IC50 was below 0.1 µM.

On to `CC(=O)N(C)CC[C@@H]1CCCN(CCN2CCn3c(c(C4CCCCC4)c4ccc(C(=O)O)cc43)-c3ccc(C)cc32)C1` [Example 1-553, 5-(2-{(S)-3-[2-(N-acetyl-N-methylamino)ethyl]piperidin-1-yl}ethyl)-13-cyclohexyl-3-methyl-6,7-dihydro-5H-benzo[5,6][1,4]diazepino[7,1-a]indole-10-carboxylic acid dihydrochloride], for which the IC50 is below 0.1 µM.

`Cc1ccc2c(c1)N(CCN1CCCCC1)CCn1c-2c(C2CCCCC2)c2ccc(C(=O)O)c(C)c21` [Example 1-554, 13-cyclohexyl-3,9-dimethyl-5-[2-(piperidin-1-yl)ethyl]-6,7-dihydro-5H-benzo[5,6][1,4]diazepino[7,1-a]indole-10-carboxylic acid dihydrochloride] displayed an IC50 below 0.1 µM.

With `Cc1ccc2c(c1)N(CCN1CCC[C@@H](CCN(C)C)C1)CCn1c-2c(C2CCCCC2)c2ccc(C(=O)O)cc21` [Example 1-555, 13-cyclohexyl-5-{2-[(S)-3-(2-dimethylaminoethyl)piperidin-1-yl]ethyl}-3-methyl-6,7-dihydro-5H-benzo[5,6][1,4]diazepino[7,1-a]indole-10-carboxylic acid dihydrochloride], the IC50 was below 0.1 µM.

`Cc1ccc2c(c1)N(CCN1CCC[C@@H](CC(=O)O)C1)CCn1c-2c(C2CCCCC2)c2ccc(C(=O)O)cc21` [Example 1-556, 5-[2-((S)-3-carboxymethylpiperidin-1-yl)ethyl]-13-cyclohexyl-3-methyl-6,7-dihydro-5H-benzo[5,6][1,4]diazepino[7,1-a]indole-10-carboxylic acid dihydrochloride] registered an IC50 below 0.1 µM.

`Cc1ccc2c(c1)N(CCN1CCC[C@@H](CCN(C)C(=O)OC(C)(C)C)C1)CCn1c-2c(C2CCCCC2)c2ccc(C(=O)O)cc21` [Example 1-557, 5-(2-{(S)-3-[2-(N-tert-butoxycarbonyl-N-methylamino)ethyl]piperidin-1-yl)ethyl)-13-cyclohexyl-3-methyl-6,7-dihydro-5H-benzo[5,6][1,4]diazepino[7,1-a]indole-10-carboxylic acid monohydrochloride] yielded an IC50 below 0.1 µM.

In turn, `Cc1ccc2c(c1)N(C1CCN(C(=O)OCc3ccccc3)CC1)CCn1c-2c(C2CCCCC2)c2ccc(C(=O)O)cc21` [Example 1-558, 5-(1-benzyloxycarbonylpiperidin-4-yl)-13-cyclohexyl-3-methyl-6,7-dihydro-5H-benzo[5,6][1,4]diazepino[7,1-a]indole-10-carboxylic acid] returned an IC50 of 0.1 to 1 µM.

Turning to `Cc1ccc2c(c1)N(CCN1CCC[C@@H](CCN(C)C(=O)N(C)C)C1)CCn1c-2c(C2CCCCC2)c2ccc(C(=O)O)cc21` [Example 1-559, 13-cyclohexyl-3-methyl-5-(2-{(S)-3-[2-(trimethylureido)ethyl]piperidin-1-yl}ethyl)-6,7-dihydro-5H-benzo[5,6][1,4]diazepino[7,1-a]indole-10-carboxylic acid dihydrochloride], the 50% inhibitory concentration (IC50) was below 0.1 µM.

Regarding `CN(C)CCN1CCn2c(c(C3CCCCC3)c3ccc(C(=O)O)cc32)-c2ccc(OCc3ccc(Cl)s3)cc21` [Example 1-560, 3-(5-chlorothiophen-2-ylmethoxy)-13-cyclohexyl-5-(2-dimethylaminoethyl)-6,7-dihydro-5H-benzo[5,6][1,4]diazepino[7,1-a]indole-10-carboxylic acid dihydrochloride], the IC50 was below 0.1 µM.

Turning to `Cc1ccc2c(c1)N(CCN1CCSCC1)CCn1c-2c(C2CCCCC2)c2ccc(C(=O)O)cc21` [Example 1-561, 13-cyclohexyl-3-methyl-5-[2-(thiomorpholin-4-yl)ethyl]-6,7-dihydro-5H-benzo[5,6][1,4]diazepino[7,1-a]indole-10-carboxylic acid dihydrochloride], the IC50 is below 0.1 µM.

`Cc1ccc2c(c1)N(C1CCNCC1)CCn1c-2c(C2CCCCC2)c2ccc(C(=O)O)cc21` [Example 1-562, 13-cyclohexyl-3-methyl-5-(piperidin-4-yl)-6,7-dihydro-5H-benzo[5,6][1,4]diazepino[7,1-a]indole-10-carboxylic acid dihydrochloride]: the IC50 was below 0.1 µM.

With `CC(=O)N1CCC(N2CCn3c(c(C4CCCCC4)c4ccc(C(=O)O)cc43)-c3ccc(C)cc32)CC1` [Example 1-563, 5-(1-acetylpiperidin-4-yl)-13-cyclohexyl-3-methyl-6,7-dihydro-5H-benzo[5,6][1,4]diazepino[7,1-a]indole-10-carboxylic acid], the IC50 is below 0.1 µM.
